Experimental data taken from patent US20240197666A1, “DITERPENOID COMPOUNDS THAT ACT ON PROTEIN KINASE C (PKC)” (K-Gen Therapeutics, Inc., priority 2021, published 2024).
Read-outs that look alike come from different tables or passages of the source.

Tests used:
A549 cell line = test: Proliferation of A549 (CellTiter Glo); assay type: cell-based; settings: read-out: IC50 μM (A549 Cell Line)
Experimental: The diterpenoid compounds were tested in A549, a non-small cell lung cancer cell line harboring a K-Ras activating mutation. Briefly, A549 cells at a density of 1,000 cells/well were seeded in 96-well plates and incubated at 37° C. for 24 hours. A series of different concentrations of compound stocks (500×) were prepared by 3-fold serial dilution in DMSO. These compounds were further diluted in culture media and then added to cells so that the final DMSO concentration was not exceeding 0.25%. After 96 hours of incubation, 50 μL of CellTiter Glo reagent (Promega) was added to each well and luminescence was measured after 10 minutes using EnVision (PerkinElmer). Luminescence from cells treated with DMSO alone was set as Max and % of inhibition was calculated as follows: Inhibition %=(Max-Sample value)/Max×100. Data was analyzed using XL-fit software (ID Business Solutions Ltd.) and IC50, relative IC50, and % of top inhibition was calculated. Some of the compounds in this disclosure were very potent in blocking proliferation of A549 lung cancer cells at low nM range. In addition, potency of inhibiting A549 proliferation correlated well with its binding affinity to PKCs for this series of compounds. In other words, higher affinity binders had stronger inhibitory effects on A549 proliferation. This further support the notion that activation, rather than inhibition, of certain PKC isoforms is required to block proliferation of cancer cells, some of which may harbor K-Ras mutations. This is in sharp contrast to previous literature and common belief that inhibition of PKC is necessary to block cancer cell growth (Kang, 2014, New Journal of Science, 2014:1-36). Data presented here is in agreement with recent findings that many loss-of-function but not gain-of-function mutations of PKC isoforms have been identified in many human cancers (Antal et al., 2015, Cell, 160:489-502).

[1] = tested on: NFκB-driven transcription in HeLa-NFκB luciferase reporter cell line; test: NFκB luciferase reporter assay; settings: PKC inhibitor added at the same time as the PKC activator compounds
human PBMC cells = test: Cytokine/chemokine gene expression in human PBMC (TaqMan); assay type: cell-based; settings: 4 h, 1 μM;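 as to Gene Relative Expression CCL2: 2^-ΔΔCt fold change vs DMSO control normalized to 18S and GAPDH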;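 as to Gene Relative Expression GM-CSF: 2^-ΔΔCt fold change vs DMSO control normalized to 18S and GAPDH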;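 as to Gene Relative Expression IFN-α: 2^-ΔΔCt fold change vs DMSO control normalized to 18S and GAPDH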;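 as to Gene Relative Expression IFNγ: 2^-ΔΔCt fold change vs DMSO control normalized to 18S and GAPDH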
Experimental: Each treatment condition was performed in duplicates.

[2] = Homo sapiens, A549, 96 hours, CellTiter Glo

Compound: CSCC[C@H](N)C(=O)O[C@@]12C[C@@H](C)[C@@]3(O)[C@@H](C=C(CO)C[C@]4(O)C(=O)C(C)=C[C@@H]34)[C@@H]1C2(C)C
- IC50 (A549 cell line; Homo sapiens, A549, 96 h): 5 to 10 µM

Compound: CC1=C[C@H]2[C@@]3(O)[C@H](C)C[C@]4(OC(=O)[C@@H](N)CCCCCCc5ccccc5)[C@H]([C@@H]3C=C(COC(=O)[C@@H](N)C(C)C)C[C@]2(O)C1=O)C4(C)C
- IC50 (A549 cell line; [2]): 0.01 to 0.03 µM

Compound: CCCCCCCCCCCCCCCCCCC(CC(=O)O[C@@]12C[C@@H](C)[C@@]3(O)[C@@H](C=C(CO)C[C@]4(O)C(=O)C(C)=C[C@@H]34)[C@@H]1C2(C)C)C(=O)O (some centres unmarked)
- IC50 (A549 cell line; Homo sapiens, A549, 96 h): 5 to 10 µM

Compound: CC1=C[C@H]2[C@@]3(O)[C@H](C)C[C@]4(OC(=O)C(Cc5ccccc5)C(=O)O)[C@H]([C@@H]3C=C(CO)C[C@]2(O)C1=O)C4(C)C (some centres unmarked)
- IC50 (A549 cell line; Homo sapiens, A549, 96 h): 1 to 2 µM

Compound: CC1=C[C@H]2[C@@]3(O)[C@H](C)C[C@]4(OC(=O)[C@H](O)Cc5ccccc5)[C@H]([C@@H]3C=C(CO)C[C@]2(O)C1=O)C4(C)C
- IC50 (A549 cell line; Homo sapiens, A549, 96 h): 2 to 5 µM

Compound: CC1=C[C@H]2[C@@]3(O)[C@H](C)C[C@]4(OC(=O)C[C@@H](N)c5ccccc5)[C@H]([C@@H]3C=C(CO)C[C@]2(O)C1=O)C4(C)C
- IC50 (A549 cell line; Homo sapiens, A549, 96 h): 2 to 5 µM

Compound: CC1=C[C@H]2[C@@]3(O)[C@H](C)C[C@]4(OC(=O)[C@H](CC5CCCCC5)N(C)C)[C@H]([C@@H]3C=C(CO)C[C@]2(O)C1=O)C4(C)C
- IC50 (A549 cell line; Homo sapiens, A549, 96 h): 0.6 to 1 µM

Compound: CC1=C[C@H]2[C@@]3(O)[C@H](C)C[C@]4(OC(=O)[C@H](N)C56CC(F)(C5)C6)[C@H]([C@@H]3C=C(CO)C[C@]2(O)C1=O)C4(C)C
- IC50 (A549 cell line; 96 hours, CellTiter Glo): 10 to 30 µM

Compound: CC1=C[C@H]2[C@@]3(O)[C@H](C)C[C@]4(OC(=O)[C@@H](N)C56CC(F)(C5)C6)[C@H]([C@@H]3C=C(CO)C[C@]2(O)C1=O)C4(C)C
- IC50 (A549 cell line; 96 hours, CellTiter Glo): 10 to 30 µM

Compound: CC1=C[C@H]2[C@@]3(O)[C@H](C)C[C@]4(OC(=O)[C@@H](N)C56CC(C(F)(F)F)(C5)C6)[C@H]([C@@H]3C=C(CO)C[C@]2(O)C1=O)C4(C)C
- IC50 (A549 cell line; [2]): 0.06 to 0.1 µM

Compound: CC1=C[C@H]2[C@@]3(O)[C@H](C)C[C@]4(O)[C@H]([C@@H]3C=C(CO)C[C@]2(O)C1=O)C4(C)C
- IC50 (A549 cell line; Homo sapiens, A549, 96 h): > 30 µM

Compound: Cn1c2ccccc2c2c3c(c4c5ccccc5n(CCC#N)c4c21)CNC3=O [Compound G66976, G66976, reference compound]
- block of NFκB activation induced by PKC activator compounds [1]: unable to block

Compound: COc1ccc2c(c1)c(C1=C(c3c[nH]c4ccccc34)C(=O)NC1=O)cn2CCCN(C)C [Gö6983, reference compound]
- block of NFκB activation induced by PKC activator compounds [1]: completely block

Compound: CCOCc1nc2c(N)nc3ccccc3c2n1CC(C)(C)O [Resiquimod, reference compound]
- Gene Relative Expression CCL2 (human PBMC cells): 3.73
- Gene Relative Expression GM-CSF (human PBMC cells): 8.79
- Gene Relative Expression IFN-α (human PBMC cells): 1.47
- Gene Relative Expression IFNγ (human PBMC cells): 1.28
- Gene Relative Expression IL-1β (human PBMC cells): 101.63
- Gene Relative Expression IL-2 (human PBMC cells): 1.21
- Gene Relative Expression IL-6 (human PBMC cells): 487.14
- Gene Relative Expression IL-8 (human PBMC cells): 9.87
- Gene Relative Expression IL-10 (human PBMC cells): 5.65
- Gene Relative Expression IL-12p40 (human PBMC cells): 786.39
- Gene Relative Expression IL-12p70 (human PBMC cells): 2.48
- Gene Relative Expression IL-13 (human PBMC cells): 3.52
- Gene Relative Expression IL-18 (human PBMC cells): 1.33
- Gene Relative Expression ISG15 (human PBMC cells): 14.75
- Gene Relative Expression MIP1a (CCL3) (human PBMC cells): 47.71
- Gene Relative Expression MX1 (human PBMC cells): 17.00
- Gene Relative Expression OAS1 (human PBMC cells): 12.66
- Gene Relative Expression TNF-α (human PBMC cells): 7.38

Compound: CN1CCN(c2nc(C3=C(c4c[nH]c5ccccc45)C(=O)NC3=O)c3ccccc3n2)CC1 [Sotrastaurin, reference compound]
- block of NFκB activation induced by PKC activator compounds [1]: completely block
